# Measurements reported in patent publication US10947252B2, “Inhibitors of KEAP1-Nrf2 protein-protein interaction” (Janssen Pharmaceutica NV, priority 2018, dated 2021).
# System: Glo-Response ARE-luc2P HEK293 cell line
# Assay: ARE luciferase reporter cell-based assay;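 also: luciferase signal tracks Nrf2 activation of the ARE once compounds disrupt KEAP1-Nrf2 binding, read with One-Glo reagent, DMSO serving as low control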
# Conditions: Homo sapiens, HEK293, 24 h, average of results obtained
row,SMILES,EC50 [nM]
1,"CCn1nnc2c(C)c(C(CC(=O)O)c3ccc(C)c(CN4C[C@@H]5CCCN5c5ccccc5S4(=O)=O)c3)ccc21 (mixture of isomers) [Example 147, (R/S)-3-(3-(((S)-5,5-Dioxido-7a,8,9,10-tetrahydrobenzo[f]pyrrolo[2,1-d][1,2,5]thiadiazepin-6(7H)-yl)methyl)-4-methylphenyl)-3-(1-ethyl-4-methyl-1H-benzo[d][1,2,3]triazol-5-yl)propanoic Acid]",19
2,"CCn1nnc2c(C)c(C(CC(=O)O)c3ccc(C)c(CN4C[C@H]5CCCN5c5ccccc5S4(=O)=O)c3)ccc21 (mixture of isomers) [Example 152, (R/S)-3-(3-(((R)-5,5-Dioxido-7a,8,9,10-tetrahydrobenzo[f]pyrrolo[2,1-d][1,2,5]thiadiazepin-6(7H)-yl)methyl)-4-methylphenyl)-3-(1-ethyl-4-methyl-1H-benzo[d][1,2,3]triazol-5-yl)propanoic Acid]",6.5
3,"CCn1nnc2c(C)c(C(CC(=O)O)c3ccc(C)c(CN4C[C@H]5COCCN5c5ncccc5S4(=O)=O)c3)ccc21 (mixture of isomers) [Example 135, (R/S)-3-(3-(((*S)-5,5-Dioxido-7a,8,10,11-tetrahydro-[1,4]oxazino[3,4-d]pyrido[2,3-f][1,2,5]thiadiazepin-6(7H)-yl)methyl)-4-methylphenyl)-3-(1-ethyl-4-methyl-1H-benzo[d][1,2,3]triazol-5-yl)propanoic Acid]",24
4,"CCn1nnc2c(C)c(C(CC(=O)O)c3ccc(C)c(CN4C[C@@H]5COCCN5c5ncccc5S4(=O)=O)c3)ccc21 (mixture of isomers) [Example 138, (R/S)-3-(3-(((*R)-5,5-Dioxido-7a,8,10,11-tetrahydro-[1,4]oxazino[3,4-d]pyrido[2,3-f][1,2,5]thiadiazepin-6(7H)-yl)methyl)-4-methylphenyl)-3-(1-ethyl-4-methyl-1H-benzo[d][1,2,3]triazol-5-yl)propanoic Acid]",14
5,"CCn1nnc2c(C)c(C(CC(=O)O)c3ccc(C)c(CN4C[C@@H]5CCCCN5c5ncccc5S4(=O)=O)c3)ccc21 (mixture of isomers) [Example 141, (R/S)-3-(3-(((*S)-5,5-Dioxido-7,7a,8,9,10,11-hexahydro-6H-dipyrido[2,1-d:2′,3′-f][1,2,5]thiadiazepin-6-yl)methyl)-4-methylphenyl)-3-(1-ethyl-4-methyl-1H-benzo[d][1,2,3]triazol-5-yl)propanoic Acid]",3.9
6,"CCn1nnc2c(C)c(C(CC(=O)O)c3ccc(C)c(CN4C[C@H]5CCCCN5c5ncccc5S4(=O)=O)c3)ccc21 (mixture of isomers) [Example 144, (R/S)-3-(3-(((*R)-5,5-Dioxido-7,7a,8,9,10,11-hexahydro-6H-dipyrido[2,1-d:2′,3′-f][1,2,5]thiadiazepin-6-yl)methyl)-4-methylphenyl)-3-(1-ethyl-4-methyl-1H-benzo[d][1,2,3]triazol-5-yl)propanoic Acid]",3.1
7,"CCn1nnc2c(C)c(C(CC(=O)O)c3ccc(C)c(CN4CC(C)(C)Oc5ncccc5S4(=O)=O)c3)ccc21 (racemic) [Example 150, (R/S)-3-[3-[(4,4-Dimethyl-1,1-dioxo-3H-pyrido[2,3-b][1,4,5]oxathiazepin-2-yl)methyl]-4-methyl-phenyl]-3-(1-ethyl-4-methyl-benzotriazol-5-yl)propanoic Acid]",56
8,"CCn1nnc2c(C)c(C(CC(=O)O)c3ccc(C)c(CN4CC(C)(C)Oc5ccccc5S4(=O)=O)c3)ccc21 (racemic) [Example 151, (R/S)-3-(3-((4,4-Dimethyl-1,1-dioxido-3,4-dihydro-2H-benzo[b][1,4,5]oxathiazepin-2-yl)methyl)-4-methylphenyl)-3-(1-ethyl-4-methyl-1H-benzo[d][1,2,3]triazol-5-yl)propanoic Acid]",10
9,"Cc1ccc([C@H](CC(=O)O)c2ccn3c(C(F)(F)F)nnc3c2C)cc1CN1CC2CCCCN2c2ncc(Cl)cc2S1(=O)=O (mixture of isomers) [Example 191, (3*S)-3-(3-((3-Chloro-5,5-dioxido-7,7a,8,9,10,11-hexahydro-6H-dipyrido[2,1-d:2′,3′-f][1,2,5]thiadiazepin-6-yl)methyl)-4-methylphenyl)-3-(8-methyl-3-(trifluoromethyl)-[1,2,4]triazolo[4,3-a]pyridin-7-yl)propanoic Acid]",1.9
10,"Cc1ccc(C(CC(=O)O)c2ccc3c(nnn3C3CC3)c2C)cc1CN1CC2(CC2)N(C)c2ncccc2S1(=O)=O (racemic) [Example 224, (R/S)-3-(1-Cyclopropyl-4-methyl-1H-benzo[d][1,2,3]triazol-5-yl)-3-(4-methyl-3-((5′-methyl-1′,1′-dioxido-5′H-spiro[cyclopropane-1,4′-pyrido[2,3-f][1,2,5]thiadiazepin]-2′(3′H)-yl)methyl)phenyl)propanoic Acid]",20
11,"CCn1nnc2c(C)c(C(CC(=O)O)c3ccc(C)c(CN4CC5(COC5)Oc5ccccc5S4(=O)=O)n3)ccc21 (racemic) [Example 237, (R 5)-3-(6-((1,1-Dioxidospiro[benzo[b][1,4,5]oxathiazepine-4,3′-oxetan]-2(3H)-yl)methyl)-5-methylpyridin-2-yl)-3-(1-ethyl-4-methyl-1H-benzo[d][1,2,3]triazol-5-yl)propanoic Acid]",19
12,"Cc1cnc2c(c1)S(=O)(=O)N(Cc1cc(C(c3ccn4c(C(F)F)nnc4c3C)C(C)(C)C(=O)O)ccc1C)CC1(CC1)O2 (racemic) [Example 559, (R/S)-3-(3-(Difluoromethyl)-8-methyl-[1,2,4]triazolo[4,3-a]pyridin-7-yl)-2,2-dimethyl-3-(4-methyl-3-((8′-methyl-1′,1′-dioxidospiro[cyclopropane-1,4′-pyrido[2,3-b][1,4,5]oxathiazepin]-2′(3′H)-yl)methyl)phenyl)propanoic Acid]",4.69
13,"Cc1ccc(C(c2ccn3c(C(F)F)nnc3c2C)C(C)(C)C(=O)O)cc1CN1CC2(CC2)Oc2ncccc2S1(=O)=O (racemic) [Example 566, (R/S)-3-(3-(Difluoromethyl)-8-methyl-[1,2,4]triazolo[4,3-a]pyridin-7-yl)-3-(3-((1′,1′-dioxidospiro[cyclopropane-1,4′-pyrido[2,3-b][1,4,5]oxathiazepin]-2′(3′H)-yl)methyl)-4-methylphenyl)-2,2-dimethylpropanoic Acid]",6.81
14,"Cc1ncc(C(c2ccn3c(C(F)(F)F)nnc3c2C)C(C)(C)C(=O)O)cc1CN1CC2(CCOCC2)Oc2ncccc2S1(=O)=O (racemic) [Example 569, (R/S)-3-(5-((1′,1′-Dioxido-2,3,5,6-tetrahydrospiro[pyran-4,4′-pyrido[2,3-b][1,4,5]oxathiazepin]-2′(3′H)-yl)methyl)-6-methylpyridin-3-yl)-2,2-dimethyl-3-(8-methyl-3-(trifluoromethyl)-[1,2,4]triazolo[4,3-a]pyridin-7-yl)propanoic Acid]",1370
15,Cc1cnc2c(c1)S(=O)(=O)N(Cc1cc(C(c3ccn4c(C(F)(F)F)nnc4c3C)C(C)(C)C(=O)O)cnc1C)CC1(CC1)O2 (racemic) [Example 572],392
16,"Cc1ccc([C@H](CC(=O)O)c2ccc3c(nnn3CC3CC3)c2C)cc1CN1C[C@]2(C)CCCN2c2ncccc2S1(=O)=O (relative stereo) [Example 12, (*S)-3-(1-(Cyclopropylmethyl)-4-methyl-1H-benzo[d][1,2,3]triazol-5-yl)-3-(4-methyl-3-(((*S)-7a-methyl-5,5-dioxido-7a,8,9,10-tetrahydropyrido[2,3-f]pyrrolo[2,1-d][1,2,5]thiadiazepin-6(7H)-yl)methyl)phenyl)propanoic Acid]",2.7
17,"Cc1ccc([C@H](CC(=O)O)c2ccn3c(C(F)F)nnc3c2C)cc1CN1C[C@@H]2CCCCN2c2ncc(C#N)cc2S1(=O)=O (relative stereo) [Example 31, (*S)-3-(3-(((*S)-3-Cyano-5,5-dioxido-7,7a,8,9,10,11-hexahydro-6H-dipyrido[2,1-d:2′,3′-f][1,2,5]thiadiazepin-6-yl)methyl)-4-methylphenyl)-3-(3-(difluoromethyl)-8-methyl-[1,2,4]triazolo[4,3-a]pyridin-7-yl)propanoic Acid]",9.9
18,"Cc1ccc([C@H](CC(=O)O)c2ccn3c(C(F)F)nnc3c2C)cc1CN1C[C@H]2CCCCN2c2ncc(C#N)cc2S1(=O)=O (relative stereo) [Example 32, (*S)-3-(3-(((*R)-3-Cyano-5,5-dioxido-7,7a,8,9,10,11-hexahydro-6H-dipyrido[2,1-d:2′,3′-f][1,2,5]thiadiazepin-6-yl)methyl)-4-methylphenyl)-3-(3-(difluoromethyl)-8-methyl-[1,2,4]triazolo[4,3-a]pyridin-7-yl)propanoic Acid]",13.6
19,"Cc1ccc([C@H](c2ccn3c(C(F)(F)F)nnc3c2C)C(C)C(=O)O)cc1CN1C[C@@H]2CCCCN2c2ncccc2S1(=O)=O (relative stereo) [Example 130, (3*R)-3-(3-(((*S)-5,5-Dioxido-7,7a,8,9,10,11-hexahydro-6H-dipyrido[2,1-d:2′,3′-f][1,2,5]thiadiazepin-6-yl)methyl)-4-methylphenyl)-2-methyl-3-(8-methyl-3-(trifluoromethyl)-[1,2,4]triazolo[4,3-a]pyridine-7-yl)propanoic Acid]",54.8
20,"Cc1ccc([C@@H](c2ccn3c(C(F)(F)F)nnc3c2C)C(C)C(=O)O)cc1CN1C[C@@H]2CCCCN2c2ncccc2S1(=O)=O (relative stereo) [Example 131, (3*S)-3-(3-(((*S)-5,5-Dioxido-7,7a,8,9,10,11-hexahydro-6H-dipyrido[2,1-d:2′,3′-f][1,2,5]thiadiazepin-6-yl)methyl)-4-methylphenyl)-2-methyl-3-(8-methyl-3-(trifluoromethyl)-[1,2,4]triazolo[4,3-a]pyridine-7-yl)propanoic Acid]",1.6
21,"CCn1nnc2c(C)c([C@@H](CC(=O)O)c3ccc(C)c(CN4C[C@@H]5CCCN5c5ccccc5S4(=O)=O)c3)ccc21 (relative stereo) [Example 148, (*S)-3-[3-[(5,5-Dioxo-7a,8,9,10-tetrahydro-7H-pyrrolo[2,1-d][1,2,5]benzothiadiazepin-6-yl)methyl]-4-methyl-phenyl]-3-(1-ethyl-4-methyl-benzotriazol-5-yl)propanoic Acid]",15
